Assay results taken from paper PMC5218480 (PLoS ONE, 2017).

System: MV-4-11 cells
Test: Gene expression microarray analysis (Affymetrix PrimeView) and GSEA
Format: cell-based, human
Parameters: RFU PODN (11730768_x_at) / Fold change /veh PODN (11730768_x_at) / RFU LINC00158 (11744669_a_at) / Fold change /veh LINC00158 (11744669_a_at) / RFU DUSP10 (11751237_a_at) / Fold change /veh DUSP10 (11751237_a_at) / RFU ID3 (11757404_x_at) / Fold change /veh ID3 (11757404_x_at) / RFU PLEKHG5 (11737974_s_at) / Fold change /veh PLEKHG5 (11737974_s_at) / RFU LRRC4B (11730491_at) / Fold change /veh LRRC4B (11730491_at) / RFU GIMAP4 (11747438_a_at) / Fold change /veh GIMAP4 (11747438_a_at) / RFU KRT8 (11758183_x_at) / Fold change /veh KRT8 (11758183_x_at) / RFU CNN1 (11734310_a_at) / Fold change /veh CNN1 (11734310_a_at) / RFU VPS37D (11726825_at) / Fold change /veh VPS37D (11726825_at) / RFU C10orf10 (11716522_x_at) / Fold change /veh C10orf10 (11716522_x_at) / RFU KIR2DL2 /// KIR2DL4 /// KIR2DL5A /// KIR2DL5B /// KIR2DS1 /// KIR2DS2 /// KIR2DS3 /// KIR2DS4 /// KIR3DL3 /// KIR3DL3 /// KIR3DS1 (11738374_at) / Fold change /veh KIR2DL2 /// KIR2DL4 /// KIR2DL5A /// KIR2DL5B /// KIR2DS1 /// KIR2DS2 /// KIR2DS3 /// KIR2DS4 /// KIR3DL3 /// KIR3DL3 /// KIR3DS1 (11738374_at) / RFU C1QL1 (11718748_at) / Fold change /veh C1QL1 (11718748_at) / RFU TMPRSS4 (11747572_a_at) / Fold change /veh TMPRSS4 (11747572_a_at) / RFU HAMP (11756126_x_at) / Fold change /veh HAMP (11756126_x_at) / RFU RNFT2 (11725882_a_at) / Fold change /veh RNFT2 (11725882_a_at) / RFU NR4A2 (11747474_a_at) / Fold change /veh NR4A2 (11747474_a_at) / RFU ABCC12 (11746883_a_at) / Fold change /veh ABCC12 (11746883_a_at) / RFU TMEM136 (11760407_x_at) / Fold change /veh TMEM136 (11760407_x_at) / RFU CLDN22 /// WWC2 (11732394_at) / Fold change /veh CLDN22 /// WWC2 (11732394_at) / RFU HLA-DPB1 (11760878_x_at) / Fold change /veh HLA-DPB1 (11760878_x_at) / RFU SPINT1 (11716480_a_at) / Fold change /veh SPINT1 (11716480_a_at) / RFU GAP43 (11754022_s_at) / Fold change /veh GAP43 (11754022_s_at) / RFU A4GNT (11735810_at) / Fold change /veh A4GNT (11735810_at) / RFU PRB3 (11715151_x_at) / Fold change /veh PRB3 (11715151_x_at) / RFU TUBB4B (11761932_at) / Fold change /veh TUBB4B (11761932_at) / RFU CAPN14 (11732068_a_at) / Fold change /veh CAPN14 (11732068_a_at) / RFU TMCC2 (11721928_a_at) / Fold change /veh TMCC2 (11721928_a_at) / RFU IRGQ (11745062_a_at) / Fold change /veh IRGQ (11745062_a_at) / RFU FAM174B (11720279_a_at) / Fold change /veh FAM174B (11720279_a_at) / RFU TMPRSS4 (11748680_a_at) / Fold change /veh TMPRSS4 (11748680_a_at) / RFU FAM212B (11763350_a_at) / Fold change /veh FAM212B (11763350_a_at) / RFU PLEKHG5 (11743358_a_at) / Fold change /veh PLEKHG5 (11743358_a_at) / RFU ZSCAN30 (11745921_a_at) / Fold change /veh ZSCAN30 (11745921_a_at) / RFU CMKLR1 (11741424_a_at) / Fold change /veh CMKLR1 (11741424_a_at) / RFU LOC101060620 /// MAPK8IP1 (11723275_at) / Fold change /veh LOC101060620 /// MAPK8IP1 (11723275_at) / RFU SPTSSB (11747773_x_at) / Fold change /veh SPTSSB (11747773_x_at) / RFU PRSS12 (11739890_at) / Fold change /veh PRSS12 (11739890_at) / RFU BIN1 (11741810_x_at) / Fold change /veh BIN1 (11741810_x_at) / RFU WNT11 (11732464_a_at) / Fold change /veh WNT11 (11732464_a_at) / RFU C10orf10 (11716521_a_at) / Fold change /veh C10orf10 (11716521_a_at) / RFU C5orf56 (11738089_at) / Fold change /veh C5orf56 (11738089_at) / RFU CYB561 (11721691_x_at) / Fold change /veh CYB561 (11721691_x_at) / RFU ANKRD19P (11752326_a_at) / Fold change /veh ANKRD19P (11752326_a_at) / RFU OR2T12 /// OR2T33 /// OR2T8 (11738714_s_at) / Fold change /veh OR2T12 /// OR2T33 /// OR2T8 (11738714_s_at) / RFU VCAN (11748164_a_at) / Fold change /veh VCAN (11748164_a_at) / RFU JSRP1 (11732532_at) / Fold change /veh JSRP1 (11732532_at) / RFU KRTAP10-11 (11738290_x_at) / Fold change /veh KRTAP10-11 (11738290_x_at) / RFU MYO3A (11730013_a_at) / Fold change /veh MYO3A (11730013_a_at) / RFU EBF3 (11725865_a_at) / Fold change /veh EBF3 (11725865_a_at) / RFU CAMK2N1 (11719241_x_at) / Fold change /veh CAMK2N1 (11719241_x_at) / RFU C5orf56 (11738088_a_at) / Fold change /veh C5orf56 (11738088_a_at) / RFU OLFML3 (11715873_a_at) / Fold change /veh OLFML3 (11715873_a_at) / RFU LOC100653217 /// NTM (11731650_a_at) / Fold change /veh LOC100653217 /// NTM (11731650_a_at) / RFU MAPK11 (11762145_a_at) / Fold change /veh MAPK11 (11762145_a_at) / RFU FIZ1 (11724087_x_at) / Fold change /veh FIZ1 (11724087_x_at) / RFU OASL (11726364_x_at) / Fold change /veh OASL (11726364_x_at) / RFU SOX15 (11748057_x_at) / Fold change /veh SOX15 (11748057_x_at) / RFU CD79A (11719716_a_at) / Fold change /veh CD79A (11719716_a_at) / RFU HIST1H1D (11736915_at) / Fold change /veh HIST1H1D (11736915_at) / RFU CASKIN2 (11723855_a_at) / Fold change /veh CASKIN2 (11723855_a_at) / RFU LOC730098 (11760151_x_at) / Fold change /veh LOC730098 (11760151_x_at) / RFU OR4N2 (11742367_at) / Fold change /veh OR4N2 (11742367_at) / RFU PRRT2 (11749266_a_at) / Fold change /veh PRRT2 (11749266_a_at) / RFU SNX32 (11753110_a_at) / Fold change /veh SNX32 (11753110_a_at) / RFU CDHR5 (11726645_a_at) / Fold change /veh CDHR5 (11726645_a_at) / RFU RCAN1 (11760418_a_at) / Fold change /veh RCAN1 (11760418_a_at) / RFU FAM167A (11723789_a_at) / Fold change /veh FAM167A (11723789_a_at) / RFU FAM26E (11764081_at) / Fold change /veh FAM26E (11764081_at) / RFU ISYNA1 (11749810_s_at) / Fold change /veh ISYNA1 (11749810_s_at) / RFU ACY1 (11761880_at) / Fold change /veh ACY1 (11761880_at) / RFU 11764098_at / Fold change /veh 11764098_at / RFU SAMD14 (11745864_x_at) / Fold change /veh SAMD14 (11745864_x_at) / RFU NPB (11741838_a_at) / Fold change /veh NPB (11741838_a_at) / RFU TMPRSS6 (11731388_a_at) / Fold change /veh TMPRSS6 (11731388_a_at) / RFU KRTAP10-2 (11738614_at) / Fold change /veh KRTAP10-2 (11738614_at) / RFU ARHGAP8 /// PRR5-ARHGAP8 (11727945_x_at) / Fold change /veh ARHGAP8 /// PRR5-ARHGAP8 (11727945_x_at) / RFU KRTAP5-7 /// NADSYN1 (11734609_at) / Fold change /veh KRTAP5-7 /// NADSYN1 (11734609_at) / RFU RASL12 (11751679_a_at) / Fold change /veh RASL12 (11751679_a_at) / RFU CDKN2B (11736163_a_at) / Fold change /veh CDKN2B (11736163_a_at) / RFU PRF1 (11729649_at) / Fold change /veh PRF1 (11729649_at) / RFU, ZNF638 /// ZNF638-IT1 / Fold change vs veh, ZNF638 /// ZNF638-IT1 / RFU, PANK3 / Fold change vs veh, PANK3 / RFU, SH3YL1 / Fold change vs veh, SH3YL1 / RFU, ZEB2 / Fold change vs veh, ZEB2 / RFU, NRIP1 / Fold change vs veh, NRIP1 / RFU, PTTG1IP / Fold change vs veh, PTTG1IP / RFU, CAPN2 / Fold change vs veh, CAPN2 / RFU, MED14 / Fold change vs veh, MED14 / RFU, SNORA58 / Fold change vs veh, SNORA58 / RFU, C1orf63 / Fold change vs veh, C1orf63 / RFU, LRRFIP1 / Fold change vs veh, LRRFIP1 / RFU, NDUFAF7 / Fold change vs veh, NDUFAF7 / RFU, SLC12A2 / Fold change vs veh, SLC12A2 / RFU, IBTK / Fold change vs veh, IBTK / RFU, ESF1 / Fold change vs veh, ESF1 / Fold change vs veh, TMEM50B / RFU, TAOK1 / Fold change vs veh, TAOK1 / RFU, ACBD3 / Fold change vs veh, ACBD3 / RFU, TMA16 / Fold change vs veh, TMA16 / RFU, RWDD3 / Fold change vs veh, RWDD3 / RFU, BCAT1 / Fold change vs veh, BCAT1 / RFU, EDEM3 / Fold change vs veh, EDEM3 / RFU, TMEM33 / Fold change vs veh, TMEM33 / RFU, WDR75 / Fold change vs veh, WDR75 / RFU, AHCTF1 / Fold change vs veh, AHCTF1 / RFU, TFRC / Fold change vs veh, TFRC / RFU, ZDHHC17 / Fold change vs veh, ZDHHC17 / RFU, NOM1 / Fold change vs veh, NOM1 / RFU, ARL8B / Fold change vs veh, ARL8B / RFU, ZBTB11 / Fold change vs veh, ZBTB11 / RFU, TAMM41 / Fold change vs veh, TAMM41 / RFU, KIAA1704 /// LOC100996395 / Fold change vs veh, KIAA1704 /// LOC100996395 / RFU, ING1 / Fold change vs veh, ING1 / RFU, TRMT61B / Fold change vs veh, TRMT61B / RFU, FUBP3 / Fold change vs veh, FUBP3 / RFU, TP53 / Fold change vs veh, TP53 / RFU, TNKS2 / Fold change vs veh, TNKS2 / RFU, ZFP14 / Fold change vs veh, ZFP14 / RFU, ACTR2 / Fold change vs veh, ACTR2 / RFU, PPP3R1 / Fold change vs veh, PPP3R1 / RFU, PIK3R1 / Fold change vs veh, PIK3R1 / RFU, HNRNPA1 / Fold change vs veh, HNRNPA1 / RFU, RNF170 / Fold change vs veh, RNF170 / RFU, ZNF28 / Fold change vs veh, ZNF28 / RFU, RNGTT / Fold change vs veh, RNGTT / RFU, OGT / Fold change vs veh, OGT / RFU, BRD1 / Fold change vs veh, BRD1 / RFU, MARS / Fold change vs veh, MARS / RFU, ZNF655 / Fold change vs veh, ZNF655 / RFU, FAHD1 / Fold change vs veh, FAHD1 / RFU, BDP1 / Fold change vs veh, BDP1 / RFU, LRRCC1 / Fold change vs veh, LRRCC1 / RFU, ARID1A / Fold change vs veh, ARID1A / RFU, ZNF146 / Fold change vs veh, ZNF146 / RFU, ZNF330 / Fold change vs veh, ZNF330 / RFU, GPN3 / Fold change vs veh, GPN3 / RFU, C9orf123 / Fold change vs veh, C9orf123 / RFU, N4BP2L2 / Fold change vs veh, N4BP2L2 / RFU, ARFIP1 / Fold change vs veh, ARFIP1 / RFU, FAM179B / Fold change vs veh, FAM179B / RFU, BCL10 / Fold change vs veh, BCL10 / RFU, UHRF1BP1L / Fold change vs veh, UHRF1BP1L / RFU, BET1 / Fold change vs veh, BET1 / RFU, CNOT2 / Fold change vs veh, CNOT2 / RFU, ZNF268 / Fold change vs veh, ZNF268 / Fold change vs veh, ZNF507 / RFU, DGCR2 / Fold change vs veh, DGCR2 / RFU, WDSUB1 / Fold change vs veh, WDSUB1 / Fold change vs veh, HSP90B1 /// MIR3652 / RFU, ADSS / Fold change vs veh, ADSS / RFU, GK / Fold change vs veh, GK / RFU, ZNF148 / Fold change vs veh, ZNF148 / RFU, TAF9 / Fold change vs veh, TAF9 / RFU, SLC1A5 / Fold change vs veh, SLC1A5 / RFU, SLMO2 / Fold change vs veh, SLMO2 / RFU, ABCC4 / Fold change vs veh, ABCC4 / RFU, LOC101060439 /// RAP1B / Fold change vs veh, LOC101060439 /// RAP1B / RFU, RFX7 / Fold change vs veh, RFX7 / RFU, GTPBP10 / Fold change vs veh, GTPBP10 / RFU, CNEP1R1 / Fold change vs veh, CNEP1R1 / RFU, BIVM-ERCC5 /// ERCC5 / Fold change vs veh, BIVM-ERCC5 /// ERCC5 / RFU, ILF3 / Fold change vs veh, ILF3 / RFU 11762660_at / Fold change /veh 11762660_at / RFU VCAN (11757783_s_at) / Fold change /veh VCAN (11757783_s_at) / RFU DDX43 (11728927_at) / Fold change /veh DDX43 (11728927_at) / RFU KRT8 (11758188_x_at) / Fold change /veh KRT8 (11758188_x_at) / RFU NKD1 (11759106_at) / Fold change /veh NKD1 (11759106_at) / RFU SRD5A1 (11742802_a_at) / Fold change /veh SRD5A1 (11742802_a_at) / RFU TPSAB1 /// TPSB2 (11721975_s_at) / Fold change /veh TPSAB1 /// TPSB2 (11721975_s_at) / RFU GSTM3 (11746129_a_at) / Fold change /veh GSTM3 (11746129_a_at) / RFU IL23R (11737362_x_at) / Fold change /veh IL23R (11737362_x_at) / RFU TMEM51 (11727254_a_at) / Fold change /veh TMEM51 (11727254_a_at) / RFU PIWIL2 (11732686_x_at) / Fold change /veh PIWIL2 (11732686_x_at) / RFU ORM1 (11744905_x_at) / Fold change /veh ORM1 (11744905_x_at) / RFU CCDC152 (11743942_at) / Fold change /veh CCDC152 (11743942_at) / RFU ECM1 (11717891_a_at) / Fold change /veh ECM1 (11717891_a_at) / RFU IL23R (11748794_a_at) / Fold change /veh IL23R (11748794_a_at) / RFU TNFAIP8L3 (11732012_x_at) / Fold change /veh TNFAIP8L3 (11732012_x_at) / RFU MBOAT4 (11741988_at) / Fold change /veh MBOAT4 (11741988_at) / RFU 11764193_at / Fold change /veh 11764193_at / RFU TMEM53 (11763286_at) / Fold change /veh TMEM53 (11763286_at) / RFU MAGEB2 (11727129_at) / Fold change /veh MAGEB2 (11727129_at) / RFU TMEM200A (11744735_a_at) / Fold change /veh TMEM200A (11744735_a_at) / RFU CCDC152 (11751479_a_at) / Fold change /veh CCDC152 (11751479_a_at) / RFU FAM211A (11726209_a_at) / Fold change /veh FAM211A (11726209_a_at) / RFU RGS16 (11746705_a_at) / Fold change /veh RGS16 (11746705_a_at) / RFU VCAN (11755009_s_at) / Fold change /veh VCAN (11755009_s_at) / RFU RHOB (11743442_s_at) / Fold change /veh RHOB (11743442_s_at) / RFU RGS16 (11720943_a_at) / Fold change /veh RGS16 (11720943_a_at) / RFU RGS16 (11720944_at) / Fold change /veh RGS16 (11720944_at) / RFU, VPS4B / Fold change vs veh, VPS4B / RFU, CREB1 / Fold change vs veh, CREB1 / RFU, DNAJC13 / Fold change vs veh, DNAJC13 / RFU, GNAQ / Fold change vs veh, GNAQ / RFU, CDK5R1 / Fold change vs veh, CDK5R1 / RFU, ZRANB3 / Fold change vs veh, ZRANB3 / RFU, CUL4A / Fold change vs veh, CUL4A / RFU, CCNY / Fold change vs veh, CCNY / RFU, UFL1 / Fold change vs veh, UFL1 / RFU, COG3 / Fold change vs veh, COG3 / RFU, DIAPH2 / Fold change vs veh, DIAPH2 / RFU, SKA2 / Fold change vs veh, SKA2 / RFU, AFF3 / Fold change vs veh, AFF3 / RFU, LMF1 / Fold change vs veh, LMF1 / RFU, IPO11 / Fold change vs veh, IPO11 / RFU, DFFB / Fold change vs veh, DFFB / RFU, FOXP1 / Fold change vs veh, FOXP1 / RFU, CARD8 / Fold change vs veh, CARD8 / RFU, STRN3 / Fold change vs veh, STRN3 / RFU, ADK / Fold change vs veh, ADK / RFU, RASSF2 / Fold change vs veh, RASSF2 / RFU, WIPF1 / Fold change vs veh, WIPF1 / RFU, LARP1B / Fold change vs veh, LARP1B / RFU, RASA1 / Fold change vs veh, RASA1 / RFU, RB1 / Fold change vs veh, RB1 / RFU, PPFIA1 / Fold change vs veh, PPFIA1 / RFU, MAT2A / Fold change vs veh, MAT2A / RFU, CCT5 / Fold change vs veh, CCT5 / RFU, WDR92 / Fold change vs veh, WDR92 / RFU, CUX1 / Fold change vs veh, CUX1 / RFU, TTC7A / Fold change vs veh, TTC7A / RFU, TMEM135 / Fold change vs veh, TMEM135 / RFU, DEPTOR / Fold change vs veh, DEPTOR / RFU, CPM / Fold change vs veh, CPM / RFU, DNAJB6 / Fold change vs veh, DNAJB6 / RFU, CACNA2D3 / Fold change vs veh, CACNA2D3 / RFU, DTX4 / Fold change vs veh, DTX4 / RFU, TFCP2 / Fold change vs veh, TFCP2 / RFU, GMCL1 /// GMCL1P1 / Fold change vs veh, GMCL1 /// GMCL1P1 / RFU, AEBP2 / Fold change vs veh, AEBP2 / RFU, SNHG1 /// SNORD22 /// SNORD25 /// SNORD26 /// SNORD27 /// SNORD28 /// SNORD29 /// SNORD31 / Fold change vs veh, SNHG1 /// SNORD22 /// SNORD25 /// SNORD26 /// SNORD27 /// SNORD28 /// SNORD29 /// SNORD31 / Fold change (Aza/veh), C12orf56 (ProbeSet 11735607_a_at) / Fold change (ACY-1035/veh), C12orf56 (ProbeSet 11735607_a_at) / Fold change (Aza/veh), FGFR1OP (ProbeSet 11751329_s_at) / Fold change (ACY-1035/veh), FGFR1OP (ProbeSet 11751329_s_at) / Fold change (Aza/veh), VPS36 (ProbeSet 11739960_a_at) / Fold change (ACY-1035/veh), VPS36 (ProbeSet 11739960_a_at) / RFU SYPL1 (11715823_x_at) / Fold change /veh SYPL1 (11715823_x_at) / RFU IGFBP7 (11715501_s_at) / Fold change /veh IGFBP7 (11715501_s_at) / RFU REEP3 (11722064_at) / Fold change /veh REEP3 (11722064_at) / RFU IGLL1 (11728026_x_at) / Fold change /veh IGLL1 (11728026_x_at): dose or concentration left out as unconfirmed
Conditions: MV-4-11 cells, 48 hours

`Nc1ncn([C@@H]2O[C@H](CO)[C@@H](O)[C@H]2O)c(=O)n1` [azacitidine] was tested, and the “Fold change /veh NPB (11741838_a_at)” value was 0.96.
